From ChEMBL document CHEMBL4706474, “Tetrahydro-2-naphthyl and 2-Indanyl Triazolopyrimidines Targeting Plasmodium falciparum Dihydroorotate Dehydrogenase Display Potent and Selective Antimalarial Activity” (J Med Chem, 2016)
≈ marks a conversion by molar mass, not a printed value.

Key:
Cytochrome P450 2C19 = Cytochrome P450 2C19 (Homo sapiens, UniProt P33261); assay: Inhibition of CYP2C19 in human liver microsomes using isoform-specific probe substrates in presence of NADPH-generating system by LC-MS analysis; assay type: ADME
Chain of Cytochrome P450 2C19 (P33261 whole entry, canonical isoform): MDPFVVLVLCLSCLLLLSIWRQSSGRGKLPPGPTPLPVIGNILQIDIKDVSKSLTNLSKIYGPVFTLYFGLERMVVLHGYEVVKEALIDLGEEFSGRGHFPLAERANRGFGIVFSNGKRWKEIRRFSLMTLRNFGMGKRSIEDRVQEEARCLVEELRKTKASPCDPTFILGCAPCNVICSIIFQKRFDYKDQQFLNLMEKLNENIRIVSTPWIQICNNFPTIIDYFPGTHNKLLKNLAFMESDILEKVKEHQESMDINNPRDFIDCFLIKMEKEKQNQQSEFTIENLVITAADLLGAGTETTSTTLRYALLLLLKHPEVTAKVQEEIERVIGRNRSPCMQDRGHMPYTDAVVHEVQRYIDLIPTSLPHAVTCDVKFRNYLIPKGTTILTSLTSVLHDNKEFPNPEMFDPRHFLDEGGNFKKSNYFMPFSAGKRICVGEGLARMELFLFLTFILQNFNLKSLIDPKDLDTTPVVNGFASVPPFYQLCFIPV

[1] = Inhibition of N-terminal His6-tagged Plasmodium falciparum DHODH expressed in Escherichia coli BL21 using L-DHO as substrate and CoQ as co-substrate by DCIP dye based spectrophotometric assay
[2] = Inhibition of N-terminal His6-tagged Plasmodium vivax DHODH expressed in Escherichia coli BL21 using L-DHO as substrate and CoQ as co-substrate by DCIP dye based spectrophotometric assay
Plasmodium falciparum [3] = assay: Antiplasmodial activity against Plasmodium falciparum 3D7 infected in RBC assessed as reduction in parasitemia incubated for 72 hrs by SYBR green dye-based assay; assay type: functional, organism-based; details: rbc
[4] = Inhibition of N-terminal His6-tagged dog DHODH expressed in Escherichia coli BL21 using L-DHO as substrate and CoQ as co-substrate by DCIP dye based spectrophotometric assay; parameters: species or system Canis lupus familiaris
[5] = Lipophilicity, logD of the compound at pH 7.4; assay type: physicochemical; details: buffer
[6] = Kinetic solubility of compound in phosphate buffer at pH 6.5 measured after 30 mins by HPLC-UV based analysis; assay type: physicochemical; details: phosphate buffer, pH 6.5, read-out: Kinetic_solubility
[7] = Protein binding in human plasma assessed as bound fraction by LC-MS analysis based ultracentrifugation assay; assay type: ADME, cell-free; details: read-out: PPB (converted)
[8] = Protein binding in rat plasma assessed as bound fraction by LC-MS analysis based ultracentrifugation assay; assay type: ADME, cell-free; details: read-out: PPB (converted)
[9] = Intrinsic clearance in human pooled liver microsomes assessed per mg protein at 1 uM by LC-MS analysis; assay type: ADME, Microsome; details: microsomes, 1 µM
[10] = Intrinsic clearance in rat liver microsomes assessed per mg protein at 1 uM by LC-MS analysis; assay type: ADME, Microsome; details: microsomes, 1 µM
[11] = Intrinsic clearance in mouse liver microsomes at 1 uM by LC-MS analysis; assay type: ADME, Microsome
[12] = Solubility of compound in FeSSIF at pH 5 measured after 5 to 6 hrs by HPLC-UV based analysis; assay type: physicochemical; details: simulated gi fluid, time 5-6 hrs
[13] = Tmax in Swiss mouse at 20 mg/kg, po administered as single dose via gavage measured over 24 hrs by LC-MS analysis; assay type: ADME, organism-based; details: in vivo
[14] = Apparent half-life in Swiss mouse at 20 mg/kg, po administered as single dose via gavage measured over 24 hrs by LC-MS analysis; assay type: ADME, organism-based; details: in vivo
[15] = Cmax in Swiss mouse at 20 mg/kg, po administered as single dose via gavage measured over 24 hrs by LC-MS analysis; assay type: ADME, organism-based; parameters: route oral, dose 20 mg/kg, time >24; details: in vivo
[16] = AUC (0 to infinity) in Swiss mouse at 20 mg/kg, po administered as single dose via gavage measured over 24 hrs by LC-MS analysis; assay type: ADME, organism-based; parameters: route oral, dose 20 mg/kg, time >24; details: in vivo
[17] = Unbound Cmax in Swiss mouse at 20 mg/kg, po administered as single dose via gavage measured over 24 hrs by LC-MS analysis; assay type: ADME, organism-based; details: in vivo
[18] = Unbound AUC (0 to infinity) in Swiss mouse at 20 mg/kg, po administered as single dose via gavage measured over 24 hrs by LC-MS analysis; assay type: ADME, organism-based; details: in vivo
[19] = Elimination half-life in Swiss mouse at 20 mg/kg, po administered as single dose via gavage measured over 24 hrs by LC-MS analysis; assay type: ADME, organism-based; details: in vivo, read-out: beta t1/2 (converted)
[20] = Apparent half-life in Sprague-Dawley rat at 1.9 mg/kg, iv administered as infusion for 10 mins by LC-MS analysis; assay type: ADME, organism-based; details: in vivo, read-out: t1/2(app) (converted)
[21] = AUC (0 to infinity) in Sprague-Dawley rat at 1.9 mg/kg, iv administered as infusion for 10 mins by LC-MS analysis; assay type: ADME, organism-based; parameters: route intravenous, dose 1.9 mg/kg, time 10 min; details: in vivo
[22] = Unbound clearance in Sprague-Dawley rat at 1.9 mg/kg, iv administered as infusion for 10 mins by LC-MS analysis; assay type: ADME, organism-based; details: in vivo
[23] = Volume of distribution at steady state in Sprague-Dawley rat at 1.9 mg/kg, iv administered as infusion for 10 mins by LC-MS analysis; assay type: ADME, organism-based; details: in vivo
[24] = Unbound volume of distribution at steady state in Sprague-Dawley rat at 1.9 mg/kg, iv administered as infusion for 10 mins by LC-MS analysis; assay type: ADME, organism-based; details: in vivo
[25] = Cmax in Sprague-Dawley rat at 18.2 mg/kg, po measured over 24 hrs by LC-MS analysis; assay type: ADME, organism-based; parameters: route oral, dose 18.2 mg/kg, time >24; details: in vivo
[26] = Unbound Cmax in Sprague-Dawley rat at 18.2 mg/kg, po measured over 24 hrs by LC-MS analysis; assay type: ADME, organism-based; details: in vivo
[27] = AUC (0 to infinity) in Sprague-Dawley rat at 18.2 mg/kg, po measured over 24 hrs by LC-MS analysis; assay type: ADME, organism-based; parameters: route oral, dose 18.2 mg/kg, time >24; details: in vivo
[28] = Unbound AUC (0 to infinity) in Sprague-Dawley rat at 18.2 mg/kg, po measured over 24 hrs by LC-MS analysis; assay type: ADME, organism-based; details: in vivo
[29] = Oral bioavailability in Sprague-Dawley rat at 18.2 mg/kg measured over 24 hrs by LC-MS analysis; assay type: ADME, organism-based; details: in vivo
Plasmodium falciparum [30] = assay: Antiplasmodial activity against Plasmodium falciparum 3D7 infected in po dosed NSG mouse assessed as reduction in parasitemia administered once daily for 4 consecutive days starting from day 3 post-infection and measured 24 hrs post last dose by flow cytometric analysis; assay type: functional; details: 3D7, po, 96 h, time 4 day
[31] = Unbound AUC (0 to infinity) in Sprague-Dawley rat at 1.9 mg/kg, iv by LC-MS analysis; assay type: ADME, organism-based; details: in vivo
[32] = Protein binding in Swiss mouse plasma at 20 mg/kg, po administered as single dose via gavage measured over 24 hrs by LC-MS analysis; assay type: ADME, organism-based; details: read-out: PPB (converted)
[33] = Protein binding in Sprague-Dawley rat plasma at 1.9 mg/kg, iv administered as infusion for 10 mins by LC-MS analysis; assay type: ADME, organism-based; details: read-out: PPB (converted)
in vivo = details: Sprague-Dawley, rat, po, 18.2 mg/kg
[34] = Solubility of compound in FaSSIF at pH 6.5 measured after 5 to 6 hrs by HPLC-UV based analysis

`Cc1cc(NC2CCc3cc(Cl)ccc3C2)n2nc(C(C)(F)F)nc2n1` (stereo in doubt) showed an IC50 (Cytochrome P450 2C19) of over 20 µM, an IC50 [1] of 0.0037 µM and an IC50 [2] of 0.029 µM. It also gave an EC50 (Plasmodium falciparum [3]) of 0.0038 µM, an IC50 [4] of over 100 µM and a logD [5] of 3.9. For the same compound, the solubility kinetic at 0.5 h [6] was 3.1 µg/mL (≈ 8.2 µM), the fraction unbound [7] was 0.012 and the fraction unbound [8] was 0.008. For the same compound, the microsomal intrinsic clearance [9] was under 7 µL/min, the “Intrinsic clearance in rat liver microsomes (uL/min/mg protein)” value [10] was 33 µL/min and the intrinsic clearance [11] was 44 µL/min. For the same compound, the solubility [12] was 211 µg/mL (≈ 558 µM), the Tmax [13] was 1 h and the “t1/2(app)” value [14] was 1.9 h. For the same compound, the Cmax [15] was 7 µM, the AUC [16] was 19.7 µM·h and the fCmax [17] was 0.06 µM. For the same compound, the fAUC [18] was 0.16 µM·h, the half-life [19] was 2 h and the half-life [20] was 7.1 h. It also gave an AUC(0-inf) [21] of 24 µM·h, a CL free [22] of 438 mL/min/kg and a Vdss [23] of 1.5 L/kg. It also gave a fVdss [24] of 188 L/kg, a Cmax [25] of 23.8 µM and a fCmax [26] of 0.19 µM. For the same compound, the AUC(0-inf) [27] was 227 µM·h, the fAUC [28] was 1.82 µM·h and the bioavailability [29] was 100%. The ED90 (Plasmodium falciparum [30]) was over 30 mg/kg, the fAUC [31] was 0.19 µM·h and the fraction unbound at 24 h [32] was 0.008. It also gave a fraction unbound at 10 min [33] of 0.008, a Tmax at 24 h (in vivo) of 4 h and a solubility [34] of 47 µg/mL (≈ 124 µM).
